These are literature values, as cited in patent US20070196463A1, “Enteric Soft Gelatin Capsule Containing Esomerpazole And Method Of Preparation” (Natco Pharma Limited, priority 2004, published 2007).

Regarding `COc1ccc2nc([S@@+]([O-])Cc3ncc(C)c(OC)c3C)[nH]c2c1` [esomeprazole], the “activity of the enantiomer in human testing” value (human testing of enantiomers of omeprazole) is on record as “more active”. For the same compound, the inter-individual variability entry (human, due to more consistent pharmacokinetics) is reported as “reduced”.
